Results reported in paper PMC7598997, “Synthesis and evaluation of anticancer activities of 2- or 4-substituted 3-(N-benzyltriazolylmethyl)-13α-oestrone derivatives” (Journal of Enzyme Inhibition and Medicinal Chemistry, 2020).

Assays:
tubulin [1] = conditions: cited from earlier work
HeLa cells [2] = system: HeLa cells; design: method as in PMID 27363663; conditions: HeLa cells ref 15; cited from earlier work
HeLa cells [3] = system: HeLa cells; design: method as in PMID 27363663; conditions: HeLa cells ref 15; cited from earlier work; remark: listed apart in the source
A2780 cell line = system: A2780 cell line; design: method as in PMID 27263437; conditions: described earlier ref 16; cited from earlier work
MCF-7 cell line = system: MCF-7 cell line; design: method as in PMID 27263437; conditions: described earlier ref 16; cited from earlier work
tested cell lines = system: tested cell lines; design: method as in PMID 27263437; conditions: described earlier ref 16; cited from earlier work
[4] = target: 17β-hydroxysteroid dehydrogenase 1, 17β-HSD1; conditions: read-out: 17β-HSD1 inhibition IC50; cited from earlier work
steroid sulfatase, STS = system: steroid sulfatase, STS; design: method as in PMID 30230387; conditions: cited from earlier work
OATP2B1 = system: OATP2B1; design: method as in PMID 30498534; conditions: read-out: OATP2B1 inhibition IC50; cited from earlier work
A2780 cells = test: MTT antiproliferative assay, A2780; type: cell-based, human; conditions: Homo sapiens, MTT
Procedure: (§1) The antiproliferative properties of the newly synthesised triazoles (11a,b–15a,b) were determined on a panel of human adherent cancer cell lines of gynaecological origin. MCF-7 and MDA-MB-231 were isolated from breast cancers differing in biochemical background, while A2780 cells were isolated from ovarian cancer. The cancer selectivity of compound 12a was tested on the non-cancerous mouse embryo fibroblast cell line NIH/3T3. All cell lines were purchased from European Collection of Cell Cultures (ECCAC, Salisbury, UK). Cells were cultivated in minimal essential medium supplemented with 10% foetal bovine serum, 1% non-essential amino acids and an antibiotic–antimycotic mixture. All media and supplements were obtained from Lonza Group Ltd., Basel, Switzerland. Near-confluent cancer cells were seeded onto a 96-well microplate (5000 cells/well) and, after overnight standing, 200 µL new medium, containing the tested compounds at 10 and 30 µM, was added. After incubation for 72 h at 37 °C in humidified air containing 5% CO2, the living cells were assayed by the addition of 20 µL of 5 mg/ml 3-(4,5-dimethylthiazol-2-yl)-2,5-diphenyltetrazolium bromide (MTT) solution. MTT was converted by intact mitochondrial reductase and precipitated as purple crystals during a 4-h contact period. The medium was next removed and the precipitated formazan crystals were dissolved in 100 µL of DMSO during a 60-min period of shaking at 37 ^оC.
(§2) Finally, the reduced MTT was assayed at 545 nm, using a microplate reader utilising wells with untreated cells serving as control. […] All in vitro experiments were carried out on two microplates with at least five parallel wells. Stock solutions of the tested substances (10 mM) were prepared in DMSO. […] Cisplatin (Ebewe Pharma GmbH, Unterach, Austria) was used as positive control.

MCF-7 cells = test: MTT antiproliferative assay, MCF-7; type: cell-based, human; conditions: Homo sapiens, MCF7, MTT
Procedure: as §1, §2

[5] = system: non-cancerous mouse embryo fibroblast cell line NIH/3T3; test: MTT assay for cancer selectivity, NIH/3T3; type: cell-based
Procedure: as §1, §2

tubulin [6] = test: cell-free in vitro tubulin polymerisation assay; type: biochemical; conditions: vs untreated control
Procedure: The effect of brominated triazole (12a) on tubulin polymerisation was tested with the HTS-Tubulin Polymerisation Assay Biochem Kit (Bio-Kasztel Ltd., Budapest, Hungary) according to the manufacturer’s recommendations. Briefly, 10 µl of a 0.125 or 0.25 mM solution of the test compound (12a) was placed on a prewarmed (37 °C), UV-transparent microplate. About 10 µl 10 µM paclitaxel and 10 µl General Tubulin Buffer were used as positive and negative control, respectively. 100 µl 3.0 mg/ml tubulin in 80 mM PIPES pH 6.9, 2 mM MgCl2, 0.5 mM EGTA, 1 mM GTP was added to each sample, and the microplate was immediately placed into a prewarmed (37 °C) UV-spectrophotometer (SpectoStarNano, BMG Labtech, Ortenberg, Germany) to start the recording reaction. A 60-min kinetic measurement protocol was applied to determine the absorbance of the reaction solution per minute at 340 nm. For the evaluation of the experimental data, the maximum reaction rate (Vmax: Δabsorbance/min) was calculated. Moving averages of absorbances determined at three consecutive timepoints were calculated and the highest difference between two succeeding moving averages was taken as the Vmax of the tested compound in the tubulin polymerisation reaction. Each sample was prepared in two parallels and the measurements were repeated twice. For statistical evaluation, Vmax data were analysed by the one-way ANOVA test with the Newmann–Keuls post-test by using Prism 4.01 software (GraphPad Software, San Diego, CA).

MDA-MB-231 cells = test: MTT antiproliferative assay, MDA-MB-231; type: cell-based, human; conditions: Homo sapiens, MTT
Procedure: as §1, §2

## COc1cc2c(cc1O)CC[C@@H]1[C@@H]2CC[C@]2(C)[C@@H](O)CC[C@@H]12 [2-methoxyestradiol]
Tubulin [1]
  effect on tubulin polymerisation: inhibit tubulin polymerisation

## CCC[C@H]1[C@@H]2CCc3cc(OCc4cn(Cc5ccccc5)nn4)ccc3[C@H]2CC[C@]1(C)CO [Compound 3]
Tubulin [1]
  maximum rate of microtubule formation: significantly increases the maximum rate of microtubule formation
HeLa cells [2]
  cell cycle effect: cell cycle arrest at G2/M
HeLa cells [3]
  migration and invasion: inhibits the migration and invasion

## C[C@@]12CC[C@@H]3c4ccc(OCc5cn(Cc6ccccc6)nn5)cc4CC[C@H]3[C@@H]1CCC2=O [Compound 4a, 3-[{1-benzyl-1H-1,2,3-triazol-4-yl}methoxy]-13α-estra-1,3,5(10)-trien-17-one]
A2780 cell line
  IC50: 500 to 600 nM
MCF-7 cell line
  IC50: 500 to 600 nM

## CC(C)(C)c1ccc(Cn2cc(COc3ccc4c(c3)CC[C@@H]3[C@@H]4CC[C@@]4(C)C(=O)CC[C@@H]34)nn2)cc1 [Compound 4b, 3-[{1-(4-tert-butylbenzyl)-1H-1,2,3-triazol-4-yl}methoxy]-13α-estra-1,3,5(10)-trien-17-one]
Tested cell lines
  influence on the growth of the tested cell lines: did not have marked influence on the growth

## C[C@@]12CC[C@@H]3c4cc(Br)c(O)cc4CC[C@H]3[C@@H]1CCC2=O [Compound 5]
[4]
  IC50: ~1000 nM

## C[C@@]12CC[C@@H]3c4ccc(O)c(Br)c4CC[C@H]3[C@@H]1CCC2=O [Compound 6]
[4]
  IC50: ~1000 nM
Steroid sulfatase, STS
  STS inhibition: dual STS and 17β-HSD1 inhibition

## CCOP(=O)(OCC)c1cc2c(cc1O)CC[C@@H]1[C@@H]2CC[C@@]2(C)C(=O)CC[C@@H]12 [Compound 7]
[4]
  IC50: 1000 to 2000 nM
OATP2B1
  IC50: 1000 to 2000 nM

## CCOP(=O)(OCC)c1cc2c(cc1OCc1ccccc1)CC[C@@H]1[C@@H]2CC[C@@]2(C)C(=O)CC[C@@H]12 [Compound 8]
OATP2B1
  IC50: 200 nM

## C[C@@]12CC[C@@H]3c4ccc(OCc5cn(Cc6ccccc6)nn5)c(Br)c4CC[C@H]3[C@@H]1CCC2=O [Compound 12a, 3-[{1-benzyl-1H-1,2,3-triazol-4-yl}methoxy]-4-bromo-13α-estra-1,3,5(10)-trien-17-one]
A2780 cells; A2780, 10 µM, 72 h, read-out: Inhibition (%) ± SEM
  inhibition at 10 µM: 93.16 ± 0.47%
A2780 cells; A2780, 30 µM, 72 h, read-out: Inhibition (%) ± SEM
  inhibition at 30 µM: 95.43 ± 0.42%
A2780 cells; A2780, 72 h, read-out: calculated IC50
  IC50: 550 nM
MCF-7 cells; MCF-7, 10 µM, 72 h, read-out: Inhibition (%) ± SEM
  inhibition at 10 µM: 42 ± 0.97%
MCF-7 cells; MCF-7, 30 µM, 72 h, read-out: Inhibition (%) ± SEM
  inhibition at 30 µM: 52.5 ± 0.94%
MCF-7 cells; MCF-7, 72 h, read-out: calculated IC50
  IC50: 12700 nM
[5]; NIH3T3, NIH/3T3, 10 µM, MTT, read-out: inhibition of cell growth
  inhibition at 10 µM: 28.7 ± 1.26%
[5]; NIH3T3, NIH/3T3, 30 µM, MTT, read-out: inhibition of cell growth
  inhibition at 30 µM: 37.9 ± 0.75%
[5]; NIH3T3, NIH/3T3, MTT
  IC50: > 30000 nM
Tubulin [6]; 125 µM test compound
  maximum rate of tubulin polymerisation (Vmax): increased
Tubulin [6]; 250 µM test compound
  maximum rate of tubulin polymerisation (Vmax): increased by our test compound which was significant
other
  melting point: 188 to 190 °C
MDA-MB-231 cells; MDA-MB-231, 10 µM, 72 h, read-out: Inhibition (%) ± SEM
  inhibition at 10 µM: 52.9 ± 1.32%
MDA-MB-231 cells; MDA-MB-231, 30 µM, 72 h, read-out: Inhibition (%) ± SEM
  inhibition at 30 µM: 53.8 ± 2.43%
MDA-MB-231 cells; MDA-MB-231, 72 h, read-out: calculated IC50
  IC50: 8800 nM
